This note sets out measurements from ChEMBL document CHEMBL1221301, “SAR studies of non-zinc-chelating MMP-13 inhibitors: improving selectivity and metabolic stability” (Bioorg Med Chem Lett, 2010).

Data set [1] in a line: Selectivity ratio of IC50 for MMP2 to IC50 for MMP13.
Data set [2] is described as follows: Selectivity ratio of IC50 for MMP10 to IC50 for MMP13.
Data set [3] is described as follows: Selectivity ratio of IC50 for MMP8 to IC50 for MMP13.
The target of data set [4] is Collagenase 3 (Homo sapiens, UniProt P45452).
A short description of data set [5]: Selectivity ratio of IC50 for MMP3 to IC50 for MMP13.
Data set [6] concerns Liver microsomes. The data set can be described thus: Metabolic stability in human liver microsomes. Type of data set: ADME, Microsome.
A short description of data set [7]: Volume of distribution at steady state in rat at 1 mg/kg, iv. Type of data set: ADME, organism-based. More on the design: dose 1 mg/kg, route intravenous. Conditions: in vivo, read-out: Vdss.
A short description of data set [8]: Half life in rat at 1 mg/kg, iv. Conditions: in vivo. More on the design: dose 1 mg/kg, route intravenous. Type of data set: ADME, organism-based.
The subject of data set [9] is Rattus norvegicus. The experiment in a line: Clearance in rat as % of liver blood flow at 1 mg/kg, iv. More on the design: dose 1 mg/kg, route intravenous. The data set is classed as ADME, organism-based. Conditions: in vivo.
Data set [10] in a line: Aqueous solubility of the compound at pH 4.5. The conditions noted are these: aqueous medium. The data set is classed as physicochemical.
A short description of data set [11]: Aqueous solubility of the compound at pH 7.4. The data set is classed as physicochemical. The conditions noted are these: aqueous medium.

A word on the IC50: it is the point on the concentration scale where inhibition reaches its midpoint. For `CNC(=O)[C@H](NC(=O)c1ccc(-c2cccc(CNC(=O)c3ccoc3C)c2)o1)C1CCCCC1`, the Ratio IC50 in data set [1] is > 61; in data set [2], 8; in data set [3], > 61; in data set [5], 9. Also, the midpoint of inhibition in [4], the IC50, lay at 330 nM.
Consider `CNC(=O)[C@@H](NC(=O)c1ccc(-c2cccc(CNC(=O)c3cccc(C(F)(F)F)n3)c2)o1)C1CC1`, for which the Stability in [6] stood at 60%.
For `CNC(=O)[C@H](NC(=O)c1ccc(-c2cccc(CNC(=O)c3ccnc(C(F)(F)F)n3)c2)o1)C1CCCCC1`, the Ratio IC50 in [1] is > 2800; in [2] it was 370; in [3], > 2800; in data set [5], > 2800. The molecule also came in with a Stability in data set [6] of 66%. 7 nM corresponded to half-maximal inhibition in data set [4] (IC50).
With `CNC(=O)[C@@H](NC(=O)c1ccc(-c2cccc(CNC(=O)c3cccc(C(F)(F)F)n3)c2)o1)C(C)C`, the Ratio IC50 was > 3600 in data set [1], 260 in [2], > 3600 in data set [3] and 1000 in data set [5]. Besides, the Stability in data set [6] stood at 88%. The same molecule yielded an IC50 in data set [4] of 6 nM.
As to `CNC(=O)[C@H](NC(=O)c1ccc(-c2cccc(CNC(=O)c3occc3C)c2)o1)C1CCCCC1`, the Ratio IC50 was > 110 in data set [1], 17 in data set [2], > 110 in data set [3] and > 110 in data set [5]. In data set [4], this molecule returned an IC50 of 180 nM.
With `CNC(=O)[C@H](NC(=O)c1ccc(-c2cccc(CNC(=O)c3cn4cccc(C)c4n3)c2)o1)C1CCCCC1`, the Ratio IC50 in data set [1] was > 45; in [2] it was 29; in data set [3], > 45; in [5] it was > 45. For the same molecule, the IC50 in data set [4] is 110 nM.
As usually defined, the half-life is the time in which the quantity being followed falls by half. A lower half-life goes with fast loss. As for `CNC(=O)[C@@H](NC(=O)c1ccc(-c2cccc(CNC(=O)c3ccnc(C(F)(F)F)n3)c2)o1)C1CC1`, in data set [7], the Vd stood at 1.2 L/kg. In addition, the Ratio IC50 is 580 in data set [1], 170 in [2], > 560 in data set [3] and 540 in data set [5]. In [6], the Stability is listed as 69%. The same molecule registered a half-inhibitory concentration (IC50) in data set [4] of 36 nM. For the same molecule, the half-life in data set [8] is 42 min. Also, the “Fraction of Liver Blood Flow” value in data set [9] amounted to 47%.
Regarding `CNC(=O)[C@@H](NC(=O)c1ccc(-c2cccc(CNC(=O)c3cccc(C(F)(F)F)n3)c2)o1)C1CCOCC1`, the Ratio IC50 in data set [1] is 1500; in data set [2], 130; in data set [3], 7100; in data set [5], 330. For the same molecule, the Stability in data set [6] stood at 83%.
Consider `CNC(=O)[C@H](NC(=O)c1ccc(-c2cccc(CNC(=O)c3cccc(C(F)(F)F)n3)c2)o1)C1CCCCC1`, for which the Ratio IC50 in [1], in data set [2], in data set [3] and in data set [5] was > 2300 in each case. This molecule gave a Stability in data set [6] of 81%. Inhibition in [4] was half-maximal at 9 nM (IC50).
For `CCc1cncc(C(=O)NCc2cccc(-c3ccc(C(=O)N[C@@H](C(=O)NC)C4CCCCC4)o3)c2)c1`, the Ratio IC50 was > 170 in data set [1], 45 in data set [2], > 170 in data set [3] and > 170 in [5]. In data set [4], the 50% inhibitory concentration (IC50) was determined as 29 nM.
Broadly, the solubility is the dissolved amount per volume that the medium holds. Low readings indicate little dissolved substance, high ones much dissolved substance. For `CNC(=O)[C@@H](NC(=O)c1ccc(-c2cccc(CNC(=O)c3ccnc(C(F)(F)F)n3)c2)o1)C(C)(C)O`, in data set [7], the Vd was 0.9 L/kg. The solubility in [10] and in data set [11] was > 50 µg/mL throughout. In addition, the Stability in data set [6] came out at 14%. In addition, the half-life in [8] is 57 min. The “Fraction of Liver Blood Flow” value in [9] worked out at 26%.
In the case of `CNC(=O)[C@H](NC(=O)c1ccc(-c2cccc(CNC(=O)c3ncccc3C)c2)o1)C1CCCCC1`, the Ratio IC50 in data set [1] was > 200; in data set [2], 31; in data set [3], > 200; in data set [5], 85. For the same molecule, the IC50 in data set [4] is 100 nM.
As for `CNC(=O)[C@@H](NC(=O)c1ccc(-c2cccc(CNC(=O)c3ccnc(C(F)(F)F)n3)c2)o1)C(C)C`, the Ratio IC50 in data set [1] is 850; in data set [2], 50; in [3], > 2100; in [5] it was 200. This molecule showed a Stability in data set [6] of 70%. In addition, the IC50 in data set [4] came to 9 nM.
As for `CNC(=O)[C@H](NC(=O)c1ccc(-c2cccc(CNC(=O)c3ccncn3)c2)o1)C1CCCCC1`, the results for the Ratio IC50 in [1], in data set [2] and in data set [3] were 290, 9 and > 2000, respectively. The IC50 in data set [4] is 10 nM.
As for `CNC(=O)[C@H](NC(=O)c1ccc(-c2cccc(CNC(=O)c3cccc(C)n3)c2)o1)C1CCCCC1`, the Ratio IC50 in data set [1] is > 4900; in [2] it was 87; in data set [3], > 4900; in data set [5], 240. In data set [4], the IC50 amounted to 4 nM.
As for `CNC(=O)[C@H](NC(=O)c1ccc(-c2cccc(CNC(=O)c3nccn3C)c2)o1)C1CCCCC1`, the Ratio IC50 is > 64 in data set [1], 9 in [2], > 64 in [3] and > 64 in [5]. Also, the IC50 in data set [4] turned out to be 310 nM.
For `CNC(=O)[C@H](NC(=O)c1ccc(-c2cccc(CNC(=O)c3cccnc3)c2)o1)C1CCCCC1`, the values for the Ratio IC50 in data set [1], in data set [2] and in data set [3] were > 480, 7 and 48, respectively. The molecule further showed an IC50 in data set [4] of 42 nM.
`CNC(=O)[C@H](NC(=O)c1ccc(-c2cccc(CNC(=O)c3ccco3)c2)o1)C1CCCCC1`: the Ratio IC50 in data set [1] was > 270; in data set [2], 6; in data set [3], > 270; in [5], 15. For the same molecule, in [4], it took 75 nM to reach half-maximal inhibition (IC50).
Turning to `CNC(=O)[C@@H](NC(=O)c1ccc(-c2cccc(CNC(=O)c3cccc(C(F)(F)F)n3)c2)o1)C(C)(C)O`, the Ratio IC50 in data set [1] is > 770; in data set [2], 440; in data set [3], > 810; in data set [5], > 400. The molecule also gave a Stability in [6] of 62%. This molecule yielded an IC50 in data set [4] of 25 nM.
On to `CNC(=O)[C@H](NC(=O)c1ccc(-c2cccc(CNC(=O)c3ccnc(Cl)n3)c2)o1)C1CCCCC1`, for which the Ratio IC50 was 590 in data set [1], 27 in [2] and > 7100 in data set [3]. Further, the 50% inhibitory concentration (IC50) in [4] amounted to 3 nM.
As to `CNC(=O)[C@H](NC(=O)c1ccc(-c2cccc(CNC(=O)c3ccccn3)c2)o1)C1CCCCC1`, the Ratio IC50 in data set [1] is > 2400; in data set [2] it was 65; in data set [3] it was > 2400; in data set [5], 200. The IC50 in [4] came out at 8 nM.
As to `CNC(=O)[C@H](NC(=O)c1ccc(-c2cccc(CNC(=O)c3cc(C)n(C)n3)c2)o1)C1CCCCC1`, the Ratio IC50 is > 280 in data set [1], 19 in data set [2], > 280 in data set [3] and 51 in data set [5]. The molecule further yielded an IC50 in data set [4] of 72 nM.
Regarding `CNC(=O)[C@H](NC(=O)c1ccc(-c2cccc(CNC(C)=O)c2)o1)C1CCCCC1`, the Ratio IC50 in data set [1] is 5; in [2] it was 0.5; in data set [3] it was > 7; in [5], 3. Further, the IC50 in data set [4] came out at 3300 nM.
As to `CNC(=O)[C@H](NC(=O)c1ccc(-c2cccc(CNC(=O)c3ccncc3)c2)o1)C1CCCCC1`, the Ratio IC50 in data set [1] was 310; in data set [2], 4; in data set [3] it was > 660. Besides, half-maximal inhibition in data set [4] (IC50) required 31 nM.
For the molecule `CNC(=O)[C@H](NC(=O)c1ccc(-c2cccc(CNC(=O)c3ccn(C)n3)c2)o1)C1CCCCC1`, the Ratio IC50 was > 430 in data set [1], 14 in [2], > 820 in [3] and 33 in [5]. The molecule further came in with an IC50 in [4] of 24 nM.
For `CNC(=O)[C@@H](NC(=O)c1ccc(-c2cccc(CNC(=O)c3ccnc(C(F)(F)F)n3)c2)o1)C1CCOCC1`, the Ratio IC50 in [1] was 640; in data set [2], 100; in [3] it was > 11000; in [5] it was 250. In [6], the Stability is on record as 24%.
Regarding `CNC(=O)[C@H](NC(=O)c1ccc(-c2cccc(CNC(=O)c3csc(C)n3)c2)o1)C1CCCCC1`, the Ratio IC50 worked out at 310 in data set [1], 7 in [2] and 1800 in [3]. This molecule had an IC50 in [4] of 8 nM.
Turning to `CNC(=O)[C@H](NC(=O)c1ccc(-c2cccc(CNC(=O)c3cn4ccc(C)cc4n3)c2)o1)C1CCCCC1`, the Ratio IC50 in data set [1] is > 37; in data set [2], 32; in [3], > 37; in data set [5], > 37. This molecule displayed an IC50 in data set [4] of 140 nM.
